The source of these data is ChEMBL document CHEMBL5724562, “Toxicity screen in isolated B cell assay results for EUbOPEN Chemogenomics Library” (2024).

Structures are written as SMILES. Non-standard residues stand in square brackets, D forms with d. Residues, ends and D or L forms follow the SMILES beside them. Arg(Me) = CNC(=N)NCCC[C@H](N)C(=O)O; d4Pal = N[C@H](Cc1ccncc1)C(=O)O; azaGly = NNC(=O)O

The first data set concerns B cell. As to the kind of experiment: Cytotoxicity screening of chemical probes in isolated B cell assay. Data is normalized to DMSO control, the cell viability average of replicates are reported. Reduction of ATP level more than 20% indicate compromised cell health status. Conditions: human, 0.1 µM.
In the case of `O=S(=O)(NC1CCC(c2cc(F)ccc2F)(S(=O)(=O)c2ccc(Cl)cc2)CC1)C(F)(F)F` (stereo unspecified) [MRK-560], the “Cell Viability” value came out at 103.093%.

For the molecule `Cc1cc(Nc2nccc(C)n2)cc(-c2cnc([C@@]3(O)CC[C@H](C(=O)O)C(C)(C)C3)s2)c1` [MRL-SYKi], the “Cell Viability” value was 97.9587%.

In the case of `COc1ccc2cc(OCC3(C(=O)O)CN(C(=O)c4ccc(F)cc4)C3)ccc2c1` [PF-04418948], the “Cell Viability” value is listed as 98.5812%.

`CS(=O)(=O)N1CCCC(NC(=O)[C@H](CCC2CCCCC2)NC(=O)c2ccc(CNC(=O)c3cnc4ccccn34)cc2)C1` (stereo partly specified) [SR-302]: the “Cell Viability” value is 99.1038%.

Regarding `Nc1c(C(=O)NCc2ccc(C(=O)NCCCC3CCCCC3)cc2)cnn1-c1ccccc1` [SR-318], the “Cell Viability” value is reported as 97.9561%.

Turning to `COc1cccc(CNC(=O)c2nc3scc(COCc4ccc(C(=O)O)cc4)c3c(=O)[nH]2)c1` [T-26c], the “Cell Viability” value was 102.037%.

With `COCCOc1nc(-c2ccc(Cl)nc2)nc2c1CN(C(=O)c1ncn3ccccc13)CC2` [THPP-1], the “Cell Viability” value is 97.9791%.

`CN1C(=O)[C@@H](N2CCc3c(nn(Cc4ccccc4)c3Br)C2=O)COc2ccccc21` [TP-030-2]: the “Cell Viability” value was 101.749%.

The data set is the same for the next values; noted with them: human, 1 µM.
Consider `C=CC(=O)N1CCC[C@@H](n2nc(-c3ccc(Oc4ccccc4)cc3)c3c(N)ncnc32)C1` [IBRUTINIB], for which the “Cell Viability” value is reported as 86.9807%.

On to `O=S(=O)(c1ccccc1)c1cnc2c(N3CCNCC3)cccc2c1` [INTEPIRDINE], for which the “Cell Viability” value is 101.733%.

Consider `c1cc(OCCCN2CCCCC2)ccc1CN1CCCCC1` [JNJ-5207852], for which the “Cell Viability” value came out at 101.482%.

Take `CNC(=N)NCCC[C@H](NC(=O)[C@H](CC(C)C)NC(=O)NNC(=O)[C@H](Cc1ccccc1)NC(=O)[C@H](CO)NC(=O)[C@H](CC(N)=O)NC(=O)[C@@H](Cc1ccncc1)NC(=O)[C@H](N)Cc1ccc(O)cc1)C(=O)N[C@@H](Cc1ccccc1)C(N)=O` [KISS1-305] (H-[dY][d4Pal]NSF[azaGly]L[Arg(Me)]F-NH2): the “Cell Viability” value is recorded as 101.037%.

Regarding `CN([C@@H]1CCc2c(CC(=O)O)c3ccccc3n2C1)S(=O)(=O)c1ccc(F)cc1` [MK-7246], the “Cell Viability” value stood at 96.8838%.

Consider `C[C@@H]1CN(c2cc(-c3n[nH]c4ccc(OC5(C)CC5)cc34)ncn2)C[C@H](C)O1` [MLi-2], for which the “Cell Viability” value was 96.3526%.

In the case of `CC(C)(O)c1cncc(-c2nc3ccc(F)cc3n2C2CC2)c1` [MSD-CYP11B2], the “Cell Viability” value is recorded as 100.571%.

In the case of `N#CC1(c2ccccn2)CCN(Cc2cc(C(=O)O)c(=O)n3ccccc23)CC1` [MSD-M1PAM], the “Cell Viability” value is listed as 98.7103%.

With `CC(=O)Nc1c(C(C)=O)c(=O)n(C)c2nc(-c3ccc(Cl)cc3Cl)c(-c3ccc(Cl)cc3)cc12` [NAPHTHYRIDINONE], the “Cell Viability” value came to 96.2894%.

Take `CO[C@@H](C)c1c(Nc2ccc([C@H](N(C)C(=O)C3CCS(=O)(=O)CC3)C(F)(F)F)cc2)cnc2cc(Cl)nn12` [NVS-MALT1]: the “Cell Viability” value was 90.4509%.

On to `CCNC1(C(N)=O)CCN(c2ncnc3c2nc(-c2ccccc2Cl)n3-c2ccc(Cl)cc2)CC1` [OTENABANT], for which the “Cell Viability” value came to 101.882%.

As to `Nc1nc(NCc2ccccc2)nc(-c2ccccc2CO)n1` [Ogerin], the “Cell Viability” value is reported as 100.729%.

Turning to `C[C@H](c1ccc(F)cc1)N(Cc1cccc(C(=O)O)c1)C(=O)c1cnc2ccccc2c1` [PF-05105679], the “Cell Viability” value is reported as 99.1446%.

Take `CC(C)Cc1ccc([C@@H](C)C(=O)NS(C)(=O)=O)cc1` [REPARIXIN]: the “Cell Viability” value amounted to 94.4279%.

Regarding `Cc1c(C(=O)NN2CCCCC2)nn(-c2ccc(Cl)cc2Cl)c1-c1ccc(Cl)cc1` [RIMONABANT], the “Cell Viability” value turned out to be 99.45%.

Turning to `C[C@@H](OC[C@@]1(c2ccccc2)CC[C@]2(CCC(=O)N2)CN1)c1cc(C(F)(F)F)cc(C(F)(F)F)c1` [ROLAPITANT], the “Cell Viability” value was 97.3629%.

For the molecule `CC(C)N(CCCCOCC(=O)NS(C)(=O)=O)c1cnc(-c2ccccc2)c(-c2ccccc2)n1` [SELEXIPAG], the “Cell Viability” value is 99.3334%.

As to `Cn1cnc2c(F)c(Nc3ccc(Br)cc3Cl)c(C(=O)NOCCO)cc21` [SELUMETINIB], the “Cell Viability” value amounted to 92.6054%.

As for `O=C1c2ccc(Nc3ccc(F)cc3F)cc2CCc2ccc(OC[C@H](O)CO)cc21` [Skepinone-L], the “Cell Viability” value turned out to be 96.8594%.

For `CN1CCN(C(=O)C(C)(C)c2ccc(C(=O)Nc3cn4cc(-c5ccncc5)ccc4n3)cc2)CC1` [T3-CLK], the “Cell Viability” value is recorded as 73.6988%.

Consider `Cc1ccc2c(c1CCC(=O)O)CC[C@@H](NS(=O)(=O)c1ccc(Cl)cc1)C2` [TERUTROBAN], for which the “Cell Viability” value is listed as 102.464%.

For the molecule `Cl.Clc1ccc2nsnc2c1NC1=NCCN1` [TIZANIDINE HYDROCHLORIDE], the “Cell Viability” value is on record as 103.384%.

Consider `Cc1cnc(-c2cc(Cl)ccc2F)cc1-n1c(=O)n(CC(N)=O)c2cnccc21` [TP-008], for which the “Cell Viability” value came out at 103.993%.

As to `Cn1nc(C(F)(F)F)cc1-c1cnc(N2CCc3cc(S(=O)(=O)Nc4c(F)cc(Cl)cc4F)cc(N4CCCC4=O)c32)nc1` [TP-020], the “Cell Viability” value was 96.7008%.

In the case of `Cc1cc(-n2nc(Cc3cc(F)cc(C(F)(F)F)c3)nc2C)ccc1C(N)=O` [TP-024], the “Cell Viability” value was found to be 100.697%.

Consider `CC(=O)Nc1cccc(-n2c(=O)n(C3CC3)c(=O)c3c(Nc4ccc(I)cc4F)n(C)c(=O)c(C)c32)c1` [TRAMETINIB], for which the “Cell Viability” value came to 85.5796%.

`Cc1ccc(/C(=C\CN2CCCC2)c2ccccn2)cc1` [TRIPROLIDINE]: the “Cell Viability” value amounted to 98.8273%.

In the case of `Cc1ccc2nc(CNCCCOc3ccccc3)cc(O)c2c1` [UCSF924], the “Cell Viability” value is given as 96.7712%.
